Assay: wn = mass fraction of the nth substance listed
Settings: 101 kPa, Liquid, Alternating current cell with electrodes, w1 = 0.01

CCCCCCCCCC[N+](CC)(CC)CCCCCCCCCC.[Br-] [didecyldiethylammonium bromide] + O
Settings	electrical conductivity [S/m]
277.55 K	0.0116
277.75 K	0.0115
277.85 K	0.0116
277.95 K	0.0116
278.15 K	0.0117
278.25 K	0.0117
278.35 K	0.0117
278.45 K	0.0116
278.55 K	0.0116
278.65 K	0.0116
278.75 K	0.0117
278.85 K	0.0117
279.05 K	0.0118
279.15 K	0.0118
279.25 K	0.0118
279.35 K	0.0119
279.55 K	0.012
279.65 K	0.012
279.85 K	0.012
279.95 K	0.012
280.15 K	0.0121
280.25 K	0.0121
280.35 K	0.0122
280.45 K	0.0122
280.55 K	0.0123
280.65 K	0.0123
280.75 K	0.0123
280.95 K	0.0123
281.05 K	0.0124
281.15 K	0.0124
281.25 K	0.0124
281.35 K	0.0125
281.45 K	0.0126
281.55 K	0.0126
281.65 K	0.0127
281.75 K	0.0127
281.85 K	0.0127
281.95 K	0.0127
282.05 K	0.0128
282.15 K	0.0129
282.35 K	0.0128
282.45 K	0.0129
282.55 K	0.013
282.65 K	0.013
282.75 K	0.0131
282.85 K	0.0131
282.95 K	0.0131
283.05 K	0.0132
283.15 K	0.0132
283.25 K	0.0133
283.35 K	0.0133
283.45 K	0.0134
283.55 K	0.0134
283.75 K	0.0135
283.85 K	0.0136
283.95 K	0.0136
284.05 K	0.0136
284.15 K	0.0137
284.25 K	0.0137
284.35 K	0.0138
284.45 K	0.0139
284.55 K	0.0138
284.65 K	0.0139
284.75 K	0.014
284.85 K	0.0141
284.95 K	0.0141
285.05 K	0.0143
285.15 K	0.0143
285.25 K	0.0142
285.35 K	0.0144
285.45 K	0.0145
285.55 K	0.0146
285.65 K	0.0146
285.75 K	0.0148
285.85 K	0.0147
285.95 K	0.015
286.05 K	0.015
286.15 K	0.0152
286.25 K	0.0152
286.35 K	0.0154
286.45 K	0.0155
286.55 K	0.0157
286.65 K	0.0158
286.75 K	0.016
286.85 K	0.0161
286.95 K	0.0164
287.05 K	0.0164
287.15 K	0.0167
287.25 K	0.0169
287.35 K	0.0172
287.45 K	0.0175
287.55 K	0.0177
287.65 K	0.0179
287.75 K	0.0182
287.85 K	0.0186
287.95 K	0.0189
288.05 K	0.0192
288.15 K	0.0196
288.25 K	0.0201
288.35 K	0.0206
288.45 K	0.021
288.55 K	0.0213
288.65 K	0.0218
288.75 K	0.022
288.85 K	0.0225
288.95 K	0.0227
289.05 K	0.0228
289.15 K	0.0233
289.25 K	0.0238
289.35 K	0.0241
289.45 K	0.0243
289.55 K	0.0249
289.75 K	0.0256
289.85 K	0.0262
289.95 K	0.0267
290.05 K	0.0274
290.15 K	0.028
290.25 K	0.0287
290.35 K	0.0297
290.45 K	0.0305
290.55 K	0.0311
290.65 K	0.0319
290.75 K	0.0329
290.85 K	0.0339
290.95 K	0.0352
291.15 K	0.0365
291.25 K	0.0379
291.35 K	0.0395
291.45 K	0.0401
291.55 K	0.0419
291.65 K	0.0447
291.75 K	0.0451
291.85 K	0.047
291.95 K	0.0496
292.05 K	0.0526
292.15 K	0.0559
292.25 K	0.0648
292.35 K	0.0649
292.45 K	0.0649
292.55 K	0.0676
292.65 K	0.0687
292.75 K	0.0704
292.85 K	0.0711
292.95 K	0.0714
293.05 K	0.0718
293.15 K	0.0718
293.35 K	0.0721
293.45 K	0.0722
293.55 K	0.0723
293.65 K	0.0724
293.75 K	0.0725
293.85 K	0.0726
293.95 K	0.0726
294.05 K	0.0727
294.15 K	0.0728
294.35 K	0.0729
294.45 K	0.073
294.55 K	0.0731
294.65 K	0.0732
294.75 K	0.0732
294.85 K	0.0733
294.95 K	0.0734
295.05 K	0.0735
295.15 K	0.0737
295.25 K	0.0736
295.35 K	0.0738
295.45 K	0.0739
295.55 K	0.074
295.65 K	0.074
295.75 K	0.0741
295.85 K	0.0741
295.95 K	0.0742
296.05 K	0.0743
296.15 K	0.0744
296.25 K	0.0746
296.35 K	0.0745
296.45 K	0.0746
296.55 K	0.0748
296.65 K	0.0748
296.75 K	0.0749
296.85 K	0.075
296.95 K	0.075
297.05 K	0.0752
297.15 K	0.0752
297.25 K	0.0752
297.35 K	0.0754
297.45 K	0.0755
297.55 K	0.0755
297.65 K	0.0757
297.75 K	0.0757
297.85 K	0.0758
297.95 K	0.0759
298.05 K	0.076
301.15 K	0.0789
301.25 K	0.079
301.35 K	0.0792
301.55 K	0.0794
301.65 K	0.0795
301.75 K	0.0795
301.95 K	0.0797
302.05 K	0.0799
302.15 K	0.08
302.25 K	0.0801
302.35 K	0.0802
302.45 K	0.0802
302.55 K	0.0803
302.65 K	0.0803
302.85 K	0.0806
302.95 K	0.0807
303.15 K	0.0809
303.25 K	0.0811
303.35 K	0.0811
303.45 K	0.0812
303.55 K	0.0814
303.75 K	0.0816
303.85 K	0.0817
304.05 K	0.0818
304.15 K	0.0819
304.35 K	0.0821
304.55 K	0.0823
304.75 K	0.0825
304.85 K	0.0826
304.95 K	0.0827
305.05 K	0.0829
305.35 K	0.0831
305.55 K	0.0831
305.75 K	0.0836
305.85 K	0.0838
306.05 K	0.0839
306.25 K	0.084
306.35 K	0.0841
306.45 K	0.0842
306.65 K	0.0843
306.75 K	0.0845
306.95 K	0.0848
307.05 K	0.0849
307.25 K	0.0851
307.55 K	0.0854
307.65 K	0.0855
307.85 K	0.0857
308.15 K	0.086
308.25 K	0.0861
308.35 K	0.0862
308.55 K	0.0862
308.75 K	0.0864
308.85 K	0.0866
309.15 K	0.0871
309.35 K	0.0872
309.55 K	0.0874
309.75 K	0.0876
309.85 K	0.0877
309.95 K	0.0878
310.25 K	0.088
310.45 K	0.0882
310.55 K	0.0883
310.65 K	0.0884
310.95 K	0.0888
311.05 K	0.089
311.25 K	0.0893
311.45 K	0.0894
311.65 K	0.0894
311.75 K	0.0896
311.85 K	0.0897
312.15 K	0.09
312.35 K	0.0901
312.45 K	0.0902
312.55 K	0.0904
312.75 K	0.0906
312.95 K	0.0908
313.15 K	0.091

Reference: the NIST ThermoML archive (doi:10.1021/acs.jced.5b00367)
